Assay results taken from article PMC4992173, “Divergent synthesis and identification of the cellular targets of deoxyelephantopins” (Nature Communications, 2016).

Target: T1, PPARγ C176A (Homo sapiens, UniProt P37231, C176A)
T1 construct: host or cells: 293T
Experiment: Gel-based competitive IC50 determination in 293T lysates: C176A PPARγ
Assay type: binding
Settings: C176A PPARγ expressed in 293T cells, lysate, 1 h, then 10 μM 24c-Cy3
Excerpt: Finally, we sought to understand the molecular basis for PPARγ binding by the synthetic analogues of deoxyelephantopin through identification of the precise covalently modified amino acid site. There is literature precedent for oxidized fatty acids containing an α,β-unsaturated ketone to form a covalent bond with a cysteine in the ligand-binding site of PPARγ[53]. More recently, synthetic ligands binding reversibly to a distinct site were identified. […] Bearing in mind that the structurally simplified, and thus less prone to MS/MS fragmentation, probe 23c binds PPARγ as efficiently as 24c (Supplementary Fig. 13), we treated the recombinant nuclear receptor with the former compound, digested the protein and analysed the resulting peptides by LC–MS/MS. […]
Supplementary figure 21: Top: Fluorescence gels corresponding to the IC50 curves presented in the main text Figure 8b. γ fluorescence signal in percentage after 19a treatment. […]
Biological materials. […] Protein concentration was determined using the Bradford assay (Bio-Rad).
Cell culture and preparation of lysates. […] Cells were lysed by sonication to form cell lysates and protein concentration was determined using the Bradford […]

T1 sequence (P37231 whole entry C176A): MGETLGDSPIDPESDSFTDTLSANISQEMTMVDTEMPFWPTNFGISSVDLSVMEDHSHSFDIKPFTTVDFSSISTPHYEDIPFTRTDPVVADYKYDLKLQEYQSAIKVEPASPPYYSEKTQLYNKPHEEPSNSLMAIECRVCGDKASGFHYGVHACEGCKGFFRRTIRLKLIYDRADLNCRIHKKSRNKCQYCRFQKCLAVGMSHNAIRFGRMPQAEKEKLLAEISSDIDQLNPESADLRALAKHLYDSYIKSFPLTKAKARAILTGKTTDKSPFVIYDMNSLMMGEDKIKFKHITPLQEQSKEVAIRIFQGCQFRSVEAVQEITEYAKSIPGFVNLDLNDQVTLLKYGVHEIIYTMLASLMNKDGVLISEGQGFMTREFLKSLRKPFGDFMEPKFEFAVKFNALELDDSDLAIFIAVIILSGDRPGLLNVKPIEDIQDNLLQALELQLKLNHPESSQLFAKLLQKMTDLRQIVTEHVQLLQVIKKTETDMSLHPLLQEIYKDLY

IC50: 33 µM
Structure (SMILES): C=C(C)C(=O)O[C@H]1CC2=C[C@H](C/C=C\[C@H]3OC(=O)C(=C)[C@H]13)OC2=O [19a]
